In patent US12583839B2, “PD-L1 antagonist compound” (ADLAI NORTYE BIOPHARMA CO., LTD., priority 2019, dated 2026) one finds EC50 data, which are given here for 37 compounds.

In the assay the target is T1, PD-1/PD-L1 (Homo sapiens, UniProt Q9NZQ7).
T1 construct: 60535 (PD-1/NFAT-Reporter-Jurkat); host or cells: CHO cells expressing PD-L1; Jurkat cells expressing PD-1
T1 sequence (Q9NZQ7 19-290): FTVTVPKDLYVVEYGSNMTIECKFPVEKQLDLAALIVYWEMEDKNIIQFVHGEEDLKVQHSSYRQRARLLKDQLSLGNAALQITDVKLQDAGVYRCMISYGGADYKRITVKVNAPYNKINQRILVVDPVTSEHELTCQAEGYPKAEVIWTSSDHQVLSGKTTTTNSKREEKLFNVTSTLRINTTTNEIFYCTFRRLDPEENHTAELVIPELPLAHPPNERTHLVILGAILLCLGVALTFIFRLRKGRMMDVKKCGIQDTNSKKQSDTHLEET
Briefly: Detection of biological activity of PD-1/PD-L1 signaling inhibition at the cellular level (NFAT luciferase reporter, PD-1/NFAT-Reporter-Jurkat cells co-cultured with TCR activator/PD-L1-CHO cells). The format is cell-based. The conditions noted are these: PD-1/NFAT-Reporter-Jurkat + TCR activator/PD-L1-CHO co-culture, 6 hours; Atezolizumab as positive control. From the text: Detection of Biological Activity of PD-1/PD-L1 Signaling Inhibition at the Cellular Level
This detection method is used for evaluating the biological activity of the compounds described in the present invention at the cellular level.
This detection method uses the luciferase reporter gene method to detect the biological activity of the compound on the inhibition of PD-1/PD-L1 signal at the cellular level. PD-1/NFAT—Reporter—Jurkat cells stably express human PD-1 and express the luciferase reporter gene regulated by NFAT elements; TCR activator/PD-L1-CHO cells stably express human PD-L1 and TCR activator elements. When the two cell lines were co-cultured, the binding of PD-1/PD-L1 inhibited the TCR signaling pathway, thereby inhibiting the expression of the downstream NFAT-controlled luciferase reporter gene. When PD-1/PD-L1 antibody or inhibitor is added, this inhibitory effect is reversed and luciferase is expressed, so that the effect of PD-1/PD-L1 inhibitor on luciferase activity can be detected.
PD-1/NFAT—Reporter—Jurkat cell (Cat: 60535) and TCR activator/PD-L1-CHO cell (Cat: 60536) were purchased from BPS Bioscience. Anti-human PD-L1 antibody (Atezolizumab, Cat: A2004) was purchased from Selleck; luciferase reporter gene expression detection kit (ONE-Glo™ Luciferase Assay System, Cat: E6120) was purchased from Promega; multifunction plate reader (SpectraMax i3x) was purchased from Molecular Devices.
The PD-1/NFAT—Reporter—Jurkat cells and TCR activator/PD-L1-CHO cells were cultured according to the routine cell culture protocol.
TCR activator/PD-L1-CHO cells were harvested and seeded into a 96-well culture plate at 35,000 cells/well in a medium volume of 100 μl and incubated overnight at 37° C. The next day, the medium was discarded, compound was added and incubated for 30 minutes, while a solvent control (dimethyl sulfoxide, DMSO, final concentration of 0.1%) and PD-L1 antibody (Atezolizumab, final concentration of about 10 nM) as positive controls were set. PD-1/NFAT-reporter-Jurkat cells were then added. After culturing for 6 hours, the luciferase activity was detected according to the instructions of the luciferase detection reagent.
Using PD-L1 antibody as a positive control, calculate the inhibition rate of PD-1/PD-L1 binding of the test compound (%)=(chemiluminescence value of compound treated wells/average value of chemiluminescence value of solvent control wells−1)/(average value of chemiluminescence value of PD-L1 antibody well/average value of chemiluminescence value of solvent control well−1)×100%.
According to the above detection method, the compounds of the present invention were evaluated for their biological activity at the cellular level, and the activity results are shown in the following table.
As to `COc1cc(-c2cccc(-c3cccc4c3cnn4Cc3cc(OC)c(CN(C)C4CCC(C(=O)O)CC4)cc3C#N)c2Cl)ccc1CNC[C@@H]1CCC(=O)N1` (stereo partly shown) [Compound 107], the EC50 was determined as 20 nM. On to `COc1cc(-c2cccc(-c3cccc4c3cnn4Cc3cc(OC)c(CN(C)C4CCC(CC(=O)O)CC4)cc3C#N)c2Cl)ccc1CNC[C@@H]1CCC(=O)N1` (stereo partly shown) [Compound 108], for which the EC50 stood at 63 nM. As for `COc1cc(-c2cccc(-c3cccc4c3cnn4Cc3cc(OC)c(CN(C)[C@H]4CC[C@@H](CC(=O)O)CC4)cc3Cl)c2Cl)ccc1CNC[C@@H]1CCC(=O)N1` [Compound 109], the EC50 amounted to 44 nM.

Take `COc1cc(-c2cccc(-c3cccc4c3cnn4Cc3cc(OC(C)C)c(CN(C)CC4CCC(C(=O)O)CC4)cc3Cl)c2Cl)ccc1CNC[C@@H]1CCC(=O)N1` (stereo partly shown) [Compound 110]: the EC50 came out at 495 nM.

`COc1cc(Cn2ncc3c(-c4cccc(-c5ccc(CNC[C@@H]6CCC(=O)N6)cc5)c4Cl)cccc32)c(F)cc1CN(C)CC1CCC(C(=O)O)CC1` (stereo partly shown) [Compound 111]: the EC50 was determined as 1040 nM. With `COc1cc(-c2cccc(-c3cccc4c3cnn4Cc3cc(OC)c(CN(C)CC4CCC(C(=O)O)CC4)cc3C)c2Cl)ccc1CNC[C@@H]1CCC(=O)N1` (stereo partly shown) [Compound 112] the figure was 185 nM. In the case of `COc1cc(Cn2ncc3c(-c4cccc(-c5cc(F)c(CNC[C@@H]6CCC(=O)N6)c(OC)c5)c4Cl)cccc32)c(Cl)cc1CN(C)[C@H]1C[C@H](C(=O)O)C1` [Compound 113], the EC50 was found to be 15 nM. On to `COc1cc(Cn2ncc3c(-c4cccc(-c5cc(F)c(CNC[C@@H]6CCC(=O)N6)c(OC)c5)c4Cl)cccc32)c(Cl)cc1CN(C)[C@H]1CC[C@H](C(=O)O)CC1` [Compound 114], for which the EC50 amounted to 14 nM. As for `COc1cc(Cn2ncc3c(-c4cccc(-c5cc(F)c(CNC[C@@H]6CCC(=O)N6)c(OC)c5)c4Cl)cccc32)c(Cl)cc1CN(C)C1CCC(CC(=O)O)CC1` (stereo partly shown) [Compound 115], the EC50 amounted to 16 nM. Regarding `COc1cc(Cn2ncc3c(-c4cccc(-c5cc(F)c(CNC[C@@H]6CCC(=O)N6)c(OC)c5)c4Cl)cccc32)c(Cl)cc1CN(C)C12CCC(C(=O)O)(CC1)CC2` [Compound 116], the EC50 was 16 nM.

Consider `COc1cc(Cn2ncc3c(-c4cccc(-c5ccc(CNC[C@@H]6CCC(=O)N6)cc5)c4Cl)cc(Cl)cc32)c(Cl)cc1CN[C@@H](CO)C(=O)O` [Compound 117], for which the EC50 came out at 537 nM.

On to `COc1cc(-c2cccc(-c3cccc4c3cnn4Cc3cc(OC)c(CN(C)CC4CCC(CC(=O)O)CC4)cc3Cl)c2Cl)ccc1CNC[C@@H]1CCC(=O)N1` (stereo partly shown) [Compound 118], for which the EC50 turned out to be 53 nM. With `COc1cc(-c2cccc(-c3cccc4c3cnn4Cc3cc(OC)c(CN(C)C4CC(CC(=O)O)C4)cc3Cl)c2Cl)ccc1CNC[C@@H]1CCC(=O)N1` (stereo partly shown) [Compound 119], the EC50 was 152 nM. Regarding `COc1cc(-c2cccc(-c3cccc4c3cnn4Cc3cc(OC)c(CN(C)C4CCC(/C=C/C(=O)O)CC4)cc3Cl)c2Cl)ccc1CNC[C@@H]1CCC(=O)N1` (stereo partly shown) [Compound 120], the EC50 is 32 nM. In the case of `COc1cc(-c2cccc(-c3cccc4c3cnn4Cc3cc(OC)c(CN(C)C4CCC(CCC(=O)O)CC4)cc3Cl)c2Cl)ccc1CNC[C@@H]1CCC(=O)N1` (stereo partly shown) [Compound 121], the 50% effective concentration (EC50) was determined as 34 nM. On to `COc1cc(-c2cccc(-c3cccc4c3cnn4Cc3cc(OC)c(CN(C4CCC(C(=O)O)CC4)C4CC4)cc3Cl)c2Cl)ccc1CNC[C@@H]1CCC(=O)N1` (stereo partly shown) [Compound 122], for which the EC50 came to 320 nM. To `CCOc1cc(Cn2ncc3c(-c4cccc(-c5ccc(CNC[C@@H]6CCC(=O)N6)c(OC)c5)c4Cl)cccc32)c(Cl)cc1CN(C)C[C@H]1CC[C@H](C(=O)O)CC1` [Compound 124] belongs 91 nM; to `COc1cc(-c2cccc(-c3cccc4c3cnn4Cc3cc(OC)c(CN(Cc4ccccc4)[C@H]4CC[C@H](C(=O)O)CC4)cc3Cl)c2Cl)ccc1CNC[C@@H]1CCC(=O)N1` [Compound 125], 680 nM. On to `COc1cc(-c2cccc(-c3cccc4c3cnn4Cc3cc(OC)c(CN(CC4CC4)[C@H]4CC[C@H](C(=O)O)CC4)cc3Cl)c2Cl)ccc1CNC[C@@H]1CCC(=O)N1` [Compound 126], for which the EC50 came to 103 nM. Regarding `COc1cc(-c2cccc(-c3cccc4c3cnn4Cc3cc(OCC(N)=O)c(CN(C)C[C@H]4CC[C@H](C(=O)O)CC4)cc3Cl)c2Cl)ccc1CNC[C@@H]1CCC(=O)N1` [Compound 127], the EC50 was 160 nM. In the case of `COc1cc(-c2cccc(-c3cccc4c3cnn4Cc3cc(OCC(=O)O)c(CN(C)C[C@H]4CC[C@H](C(=O)O)CC4)cc3Cl)c2Cl)ccc1CNC[C@@H]1CCC(=O)N1` [Compound 128], the EC50 is 391 nM. `COc1cc(-c2cccc(-c3cccc4c3cnn4Cc3cc(OC)c(CN(C)[C@H]4CC[C@H](C(=O)NS(C)(=O)=O)CC4)cc3Cl)c2Cl)ccc1CNC[C@@H]1CCC(=O)N1` [Compound 129]: the EC50 stood at 29 nM. On to `COc1cc(Cn2ncc3c(-c4cccc(-c5cc(F)c(CNC[C@@H]6CCC(=O)N6)c(OC)c5)c4Cl)cccc32)c(Cl)cc1CN(C)C[C@H]1CC[C@H](CC(=O)O)CC1` [Compound 130], for which the concentration for a half-maximal effect (EC50) is 134 nM.

Regarding `COc1cc(Cn2ncc3c(-c4cccc(-c5cc(F)c(CNC[C@@H]6CCC(=O)N6)c(OC)c5)c4Cl)cccc32)c(Cl)cc1CN(C)[C@H]1CC[C@H](CCC(=O)O)CC1` [Compound 131], the EC50 was found to be 40 nM. Consider `COc1cc(Cn2ncc3c(-c4cccc(-c5cc(F)c(CNC[C@@H]6CCC(=O)N6)c(OC)c5)c4Cl)cccc32)c(Cl)cc1CN(C)[C@H]1CC[C@H](/C=C/C(=O)O)CC1` [Compound 132], for which the EC50 worked out at 23 nM. Turning to `COc1cc(Cn2ncc3c(-c4cccc(-c5ccc(CNC[C@@H]6CCC(=O)N6)c(OC)n5)c4Cl)cccc32)c(Cl)cc1CN(C)C12CCC(C(=O)O)(CC1)CC2` [Compound 133], the EC50 was found to be 81 nM. As to `COc1cc(-c2cccc(-c3cccc4c3cnn4Cc3cc(OC[C@@H]4CCC(=O)N4)c(CN(C)C[C@H]4CC[C@H](C(=O)O)CC4)cc3Cl)c2Cl)ccc1CNC[C@@H]1CCC(=O)N1` [Compound 134], the EC50 came out at 68 nM. Turning to `COc1cc(-c2cccc(-c3cccc4c3cnn4Cc3nc(OC)c(CN(C)C45CCC(C(=O)O)(CC4)CC5)cc3Cl)c2Cl)cc(F)c1CNC[C@@H]1CCC(=O)N1` [Compound 135], the EC50 turned out to be 25 nM.

Consider `COc1cc(Cn2ncc3c(-c4cccc(-c5cc(F)c(CNC[C@@H]6CCC(=O)N6)c(OC)c5)c4Cl)cccc32)c(Cl)cc1CN(C)C12CC(C(=O)O)(C1)C2` [Compound 136], for which the EC50 came to 240 nM. With `COc1nc(-c2cccc(-c3cccc4c3cnn4Cc3nc(OC)c(CN(C)C45CCC(C(=O)O)(CC4)CC5)cc3Cl)c2Cl)ccc1CNC[C@@H]1CCC(=O)N1` [Compound 137] the figure was 41 nM; with `COc1cc(Cn2ncc3c(-c4cccc(-c5cc(F)c(CNC[C@@H]6CCC(=O)N6)c(OC)c5)c4Cl)cccc32)c(C#N)cc1CN(C)[C@H]1C[C@H](C(=O)O)C1` [Compound 139], 15 nM; with `COc1cc(Cn2ncc3c(-c4cccc(-c5cc(F)c(CNC[C@@H]6CCC(=O)N6)c(OC)c5)c4Cl)cccc32)c(C#N)cc1CN(C)[C@]12CC[C@@](C(=O)O)(CC1)CC2` [Compound 140], 25 nM. `COc1cc(Cn2ncc3c(-c4cccc(-c5cc(F)c(CNC[C@@H]6CCC(=O)N6)c(OC)c5)c4Cl)cccc32)c(C#N)cc1CN(C)[C@H]1CC[C@H](CC(=O)O)CC1` [Compound 141]: the EC50 came out at 40 nM.

Turning to `COc1cc(Cn2ncc3c(-c4cccc(-c5cc(F)c(CNC[C@@H]6CCC(=O)N6)c(OC)c5)c4Cl)cccc32)c([N+](=O)[O-])cc1CN(C)[C@H]1CC[C@H](C(=O)O)CC1` [Compound 142], the EC50 was determined as 37 nM.

As to `COc1cc(Cn2ncc3c(-c4cccc(-c5cc(F)c(CNC[C@@H]6CCC(=O)N6)c(OC)c5)c4Cl)cccc32)c([N+](=O)[O-])cc1CN(C)[C@H]1C[C@H](C(=O)O)C1` [Compound 143], the EC50 amounted to 31 nM. With `COc1cc(Cn2ncc3c(-c4cccc(-c5cc(F)c(CNC[C@@H]6CCC(=O)N6)c(OC)c5)c4Cl)cccc32)c([N+](=O)[O-])cc1CN(C)[C@H]1CC[C@H](CC(=O)O)CC1` [Compound 144] the figure was 40 nM; with `COc1cc(Cn2ncc3c(-c4cccc(-c5cc(F)c(CNC[C@@H]6CCC(=O)N6)c(OC)c5)c4Cl)cccc32)c([N+](=O)[O-])cc1CN(C)C12CCC(C(=O)O)(CC1)CC2` [Compound 145], 51 nM.
